# Source: patent publication US20220306603A1, “TARGETING DNA REPAIR IN TUMOR CELLS VIA INHIBITION OF ERCC1-XPF” (The Governors of the University of Alberta, priority 2019, published 2022)
# “Also recorded” adds a separate entry of the source.
# Assays:
# [1] = ADME screening: solubility; type: physicochemical; settings: Table 8
# [2] = ADME screening: cell permeability and efflux ratio; settings: for Cell permeability (Mean recovery %) (in words): Table 8
# [3] = Microsomal stability in vitro (human liver microsomes); settings: for Microsomal stability in vitro CLint (in words): Table 8
# [4] = system: HCT116 cells; test: Clonogenic survival assay, UV treatment; type: cell-based, human; settings: 254 nm UV 0-10 J/m^2; compound 0.5-4 μM
# Method: UV treatment: HCT116 cells (100-800 cells depending on the UV dose) were plated in triplicate in 60-mm petri dishes. The cells were incubated overnight at 37° C. in a humidified atmosphere containing 5% CO2 to allow for cell attachment. […] Medium was removed again, and cells were exposed to increasing doses (0-10 J/m^2) of UV-C radiation and then incubated for a further 10 days in the presence of inhibitor at 37° C. in a 5% CO2 atmosphere to allow for colony formation. After this period plates were stained with crystal violet and colonies were counted using a Colcount instrument (Oxford Optronix, Abingdon UK). Finally, plating efficiency and surviving fraction were calculated.
# [5] = system: HCT116 cells; test: Cytotoxicity profile: crystal violet viability assay (and colony forming assay); type: cell-based, human
# Method: Crystal violet viability assays were carried out to assess the cellular toxicity of these compounds to HCT116 cells and to choose relatively non-cytotoxic concentrations to be further utilised in sensitizing cells to UV radiation or cyclophosphamide.
# The beneficial effect is especially visible at a concentration of 5.0 μM. At higher concentrations, both compounds show an equal cytotoxic effect (FIG. 15).
# [6] = molecular target: DNA; test: Binding constant to DNA; settings: Table 7
# [7] = ADME screening: LogD; settings: for logD: pH 7.4
# [8] = molecular target: T1, ERCC1-XPF (Homo sapiens, UniProt Q92889); test: Microplate fluorescence incision assay of ERCC1-XPF endonuclease activity; type: biochemical; settings: for inhibition of ERCC1-XPF endonuclease activity (in words): compounds 10 μM each; for IC50: full-length ERCC1-XPF, 30 minutes incubation, 5% DMSO, read-out: IC50 of ERCC1-XPF endonuclease activity
# T1 construct: His6; made in house; host or cells: E. coli BL21 (DE3)
# T1 sequence (Q92889 1-916): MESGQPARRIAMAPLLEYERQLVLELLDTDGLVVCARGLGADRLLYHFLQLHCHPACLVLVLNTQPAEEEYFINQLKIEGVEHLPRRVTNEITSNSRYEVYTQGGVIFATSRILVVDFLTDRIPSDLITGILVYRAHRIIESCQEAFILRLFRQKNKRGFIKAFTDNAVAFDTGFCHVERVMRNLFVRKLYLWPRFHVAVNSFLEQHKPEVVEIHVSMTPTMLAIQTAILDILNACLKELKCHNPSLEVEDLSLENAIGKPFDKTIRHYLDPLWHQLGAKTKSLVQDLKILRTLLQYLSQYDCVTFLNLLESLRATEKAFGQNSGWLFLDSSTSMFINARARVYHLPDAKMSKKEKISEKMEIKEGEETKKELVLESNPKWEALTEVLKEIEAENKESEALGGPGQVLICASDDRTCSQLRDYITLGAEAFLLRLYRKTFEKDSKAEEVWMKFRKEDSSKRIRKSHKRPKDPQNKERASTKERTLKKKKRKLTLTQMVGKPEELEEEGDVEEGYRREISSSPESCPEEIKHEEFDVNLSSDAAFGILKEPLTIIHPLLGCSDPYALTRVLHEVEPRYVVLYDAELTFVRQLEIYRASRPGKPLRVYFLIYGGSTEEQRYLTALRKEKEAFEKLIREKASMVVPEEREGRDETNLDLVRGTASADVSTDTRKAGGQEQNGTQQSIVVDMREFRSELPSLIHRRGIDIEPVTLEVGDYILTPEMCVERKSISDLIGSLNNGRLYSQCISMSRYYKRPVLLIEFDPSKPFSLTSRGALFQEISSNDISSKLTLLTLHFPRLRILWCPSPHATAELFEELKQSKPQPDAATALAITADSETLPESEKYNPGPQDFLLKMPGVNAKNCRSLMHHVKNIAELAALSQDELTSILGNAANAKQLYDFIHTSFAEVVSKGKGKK
# Source text: This assay has been previously described (29), and utilizes a stem-loop substrate (composed of a 10mer-duplex stem and a 20mer-oligodT single-strand loop), labelled on the 5′-terminus with 6-FAM and 3′ with the quencher dabcyl.
# Human ERCC1-XPF wild-type protein was obtained as previously described (29). Basically, the recombinant protein was expressed from a bicistronic plasmid (provided by Dr. Richard Wood, University of Texas MD Anderson Cancer Center, Smithville, Tex.) in the E. coli BL21 (DE3) strain. Since both XPF and ERCC1 contained a polyhistidine (His-6) tag, the proteins extracted from E. coli were incubated with a ProBond Nickel-Chelating Resin (Thermo Fisher Scientific). Protein eluted from the Ni affinity column was subsequently loaded into a Hi-trap heparin column (GE Healthcare). Fractions recovered from the heparin column that contained ERCC1-XPF were dialyzed, concentrated and stored at −80° C. in 10 mM HEPES pH 7.4, 2.5 mM p-mercaptoethanol, 0.01% CHAPS, 0.25 mM EDTA, 50% glycerol and 25 mM NaCl.
# A previously described protocol (2,29) was followed.
# [9] = system: HCT116 cells; test: Clonogenic survival assay, cyclophosphamide treatment; type: cell-based, human; settings: cyclophosphamide 0-300 μM; compound 1-4 μM
# Method: Plates were incubated for another 8 days at 37° C. in a 5% CO2 atmosphere for colony formation. After this period plates were stained with crystal violet, colonies were counted, and plating efficiency and surviving fraction were calculated.
# [10] = molecular target: T2, ERCC1-XPF complex (Homo sapiens, UniProt Q92889); test: Steady-state intrinsic tryptophan fluorescence quenching binding assay; settings: Table 7; read-out: Kd protein
# T2 construct: His6; made in house; host or cells: E. coli BL21 (DE3)
# T2 sequence (Q92889 1-916): T1 sequence (Q92889 1-916)
# Method: Steady-state fluorescence spectra were measured at room temperature on a Perkin-Elmer LS-55 spectrofluorometer (Freemont, Calif.) with 5 nm spectral resolution for excitation and emission using 30-80 nM solution of purified recombinant ERCC1-XPF protein complex. […] In studying the effects of inhibitors on protein fluorescence intensities, additions to protein samples were made from inhibitors stock solutions, keeping the protein dilution below 3%.
# [11] = system: HCT116 cells; test: Cellular repair of UV-induced cyclobutane pyrimidine dimers (immunofluorescence); type: cell-based, human; settings: 8 J/m^2 UV-C, up to 24 h post-irradiation
# Method: Protocol of Mirzayans et al. was followed with minor modifications (30). Approximately 1×10^5 HCT116 cells were seeded on each coverslip and allowed to attach overnight. Medium was then removed and cells were treated for one hour with the desired compound. The medium was removed, and cells were exposed to 8 J/m^2 UV-C radiation (G15T8 254 nm lamp, Ushio America Inc, Cypress, Calif.) followed by adding fresh medium containing the compound. Plates were incubated at 37° C. for different periods of time up to 24 hours and fixed in 50:50 methanol/1× phosphate-buffered saline (PBS) solution, followed by replacing the methanol/PBS solution with 100% methanol and incubation in −20° C. After 20 minutes, methanol was removed, and cells were treated with PBS for 5 minutes in room temperature. After fixing, cells were permeabilized in 0.5% Triton/PBS and washed with PBS, denatured in 2 N HCl, and neutralized by twice washing with 0.1 M borate buffer pH 8.5. Cells on cover slips were washed once with PBS followed by blocking with 5% non-fat dry milk/PBS for 30 minutes. Mouse anti-thymine dimer monoclonal antibody (Cat. No. MC-062, Kamiya Biomedical Company, Seattle, Wash.) was applied to the cover slips for one hour in the dark and at room temperature. Cells were then washed with PBS containing 0.1% Tween-20 and incubated with rabbit anti-mouse IgG-Alexafluor antibody (Invitrogen, Carlsbad, Calif.) followed by two washes with PBS/(0.1%)Tween-20. Cells on coverslips were then washed with PBS, rinsed with water, and mounted on slides using DAPI glycerol mounting solution. Slides were kept at 4° C. before fluorescent microscopic evaluation and measurement of fluorescence intensity with MetaXpress Version: 6.2.1.704 software (Molecular Devices, Sunnyvale, Calif.).
# To test for inhibition of nucleotide excision repair, we monitored the cellular removal of UVC-induced cyclobutane pyrimidine dimers (CPDs) in HCT116 cells over a 24-hour period using an immunochemical assay.
# [12] = system: five CYP450 tested enzymes
# [13] = system: serum proteins; test: ADME screening: serum protein binding; type: in vitro ADME; settings: Table 8
# [14] = Hepatocyte stability in vitro; type: in vitro ADME; settings: Table 8
Solubility (in words) [1],Cell permeability (Mean recovery %) (in words) [2],Microsomal stability in vitro CLint (in words) [3],LogD (rating) ([7]; Table 8),logD [7],inhibition of ERCC1-XPF endonuclease activity (in words) [8],IC50 [8] [nM],SMILES,"sensitisation to UV radiation, clonogenic survival (in words) [4]","sensitisation to cyclophosphamide, clonogenic survival (in words) [9]",inhibition of cellular removal of CPDs / thymidine dimers (in words) [11],also measured
Unstable,Low,Moderate,Good,2.01,marked capacity to inhibit,490,CN(C)CCN1CCN(Cc2cc(Nc3c4ccc(Cl)cc4nc4ccc(O)cc34)ccc2O)CC1 [Gen B9],significantly reduced the survival,significantly sensitised the HCT116 cells to cyclophosphamide,significantly inhibited the removal of CPDs,"efflux ratio ([2]; not told): > 2; metabolism on exposure to human liver microsomes (in words) [3]: moderate metabolism; cells survived ([5]; 5 μM, 3 days exposure, crystal violet): approximately 95%; Kd [6]: 1050 ± 50 nM; Kd [10]: 85 ± 5 nM; inhibition of cellular removal of CPDs / thymidine dimers (in words) ([11]; listed as B9): significantly different"
Good,Low,Low clearance,Good,3.95,higher inhibitory effect,167,"COc1ccc2nc3cc(Cl)ccc3c(Nc3ccc(O)c(CN4CCN(CCN(C(C)C)C(C)C)CC4)c3)c2c1 [Gen C-1, 4-((6-Chloro-2-methoxyacridin-9-yl)amino)-2-((4-(2-(diisopropylamino)ethyl)piperazin-1-yl)methyl)-phenol]",significant sensitisation effect,significantly sensitised the HCT116 cells to cyclophosphamide; also recorded: significantly sensitized the cells to cyclophosphamide,significant inhibition of removal of CPDs,"CVP inhibition (5 enzyme) (rating) [12]: Good; cytotoxicity (in words) ([5]; crystal violet staining, for Gen C1 also colony forming assay): lower cytotoxicity; Serum protein binding (% bound) [13]: (99.5) % bound; Serum protein binding (in words) [13]: Strong binding; LogD (remark in the LogD row) ([7]; Table 8): (partially soluble); Hepatocyte stability in vitro CLint (in words) [14]: (medium clearance)"
